Reference: US12060586B2, “Cell data recorders and uses thereof” (The Broad Institute, Inc., priority 2018, dated 2024)

Test system: Wnt signaling
Assay: Wnt signaling-driven luciferase expression in HEK293T cells
Type: cell-based, human
Conditions: HEK293T transfected with (LEF-TCF)7-BE3-P2A-Luc; LiCl 50 mM, 24 hours
From the text: The Wnt signaling pathway (also known as a signaling cascade) plays a crucial role in embryonic development and aberrant Wnt signaling is associated with a variety of diseases in humans (38). A recording of Wnt signaling was sought using CAMERA 2m in human cells. To achieve this goal, the expression of BE3 was placed under a (LEF-TCF)7 promoter (39) that responds to Wnt signaling to initiate downstream gene expression in CAMERA 2 m.3. […] A (LEF-TCF)7-BE3-P2A-Luc construct that expresses a firefly luciferase protein together with BE3 was included so that Wnt could be monitored simultaneously by luminescence and by high-throughput sequencing of the CCR5 recording locus. […] This increase in Wnt signaling was permanently recorded by a 53-fold increase in base editing at the CCR5 locus upon LiCl treatment (FIG. 5E).
To enable CAMERA 2m to record Wnt signaling, a (TCF/LEF)7 promoter was installed upstream BE3 and BE3-P2A-Luc to generate CAMERA 2 m.3 ((TCF/LEF)7-BE3 and ((TCF/LEF)7-BE3-P2A-Luc). TOPFlash ((TCF/LEF)7-Luc) (47) was used as a transient readout of Wnt signaling. A control plasmid that encodes the Renilla luciferase was included to normalize transfection efficiency for luminescence readout. […]
Firefly luciferase and Renilla luciferase activities were measured 24 hours after LiCl treatment. […]

[Cl-].[Li+] [LiCl]
fold increase in Wnt signaling-driven luciferase expression: 140 fold
